Assay results: US20260176320A1, “MODULATORS OF G-PROTEIN COUPLED RECEPTORS” (priority 2018, published 2026)
Read-outs that look alike come from different tables or passages of the source.

How the values were obtained:
GLP-1R [1] = biological target: T1, GLP-1R (Homo sapiens, UniProt P43220); assay: HitHunter cAMP assay (GLP-1R); format: cell-based; settings: cAMP; for Emax: read-out: (Emax) GLP-1R
How it was run: (§1)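 Luminescent readout of cAMP by enzyme-fragment immunocompetition gave agonist concentration-response data. Cells (10,000/well) sat in HBSS buffer containing IBMX 625 μM, HEPES 10 mM and BSA 0.2%, exposed to agonist for 30 min at room temperature.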

GIP-R = biological target: T2, GIP-R (Homo sapiens, UniProt P48546); assay: HitHunter cAMP assay (GIP-R); format: cell-based; settings: cAMP; for Emax: read-out: (Emax) GIP-R
T2 sequence (P48546 22-466): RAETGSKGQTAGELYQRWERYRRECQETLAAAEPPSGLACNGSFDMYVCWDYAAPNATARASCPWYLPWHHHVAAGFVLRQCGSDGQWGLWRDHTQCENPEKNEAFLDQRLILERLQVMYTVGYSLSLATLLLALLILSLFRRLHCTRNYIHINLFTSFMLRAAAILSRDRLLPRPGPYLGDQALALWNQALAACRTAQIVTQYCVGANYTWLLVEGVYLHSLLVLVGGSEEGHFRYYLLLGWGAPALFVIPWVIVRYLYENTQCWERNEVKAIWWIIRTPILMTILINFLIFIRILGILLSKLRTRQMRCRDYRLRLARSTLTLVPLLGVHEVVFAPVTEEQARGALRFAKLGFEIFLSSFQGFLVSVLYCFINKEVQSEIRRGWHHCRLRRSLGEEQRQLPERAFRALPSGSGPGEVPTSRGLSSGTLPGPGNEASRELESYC
How it was run: as §1

mice = assay: Glucose tolerance test (GTT); format: in vivo, mouse; settings: 24 h GTT, s.c., percent of vehicle
Method: Freestyle Lite glucometer and strips; compounds to be tested; sterilized glucose solution 200 mg/ml.
Compounds were diluted in PBS from the 1 mM DMSO stocks right before injection. Body weight and baseline blood glucose level for each mouse were measured. Tails were snipped using sterile scissors; blood from tails was used to measure glucose. For 0.25 h GTT, mice were fasted for 5-6 h and injected with compound subcutaneously 15 mins before glucose injection. For 4 h GTT, mice were fasted O/N for 16 h and injected with compound subcutaneously 4 h before glucose injection. For 16 h GTT, mice were injected with compound subcutaneously 16 h before glucose injection; food was removed at the same time. For 24 h GTT, mice were injected with compound subcutaneously 24 h before glucose injection; food was removed 5-6 h before glucose injection. 20% glucose in water was prepared; the solution was sterilized by 0.2 μm-filtration. An intraperitoneal injection of glucose (2 g/kg) was given to the mouse. Continued to take blood samples from the tail. Blood glucose was measured at 10, 20, 30, 40, 60, 90, and 120 minutes after glucose injection. Between each of these time points, the mouse was returned to its cage and monitored (at least 6 replicate mice were used for each time-point). The average glucose measurements were plotted as a function of time and the area under the curve (AUC) was determined.

GLP-1R [2] = biological target: T1, GLP-1R; assay: PathHunter β-arrestin assay; format: cell-based
How it was run: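 Overnight-plated cells; 0.2% BSA medium; agonist 22-pt 2× dilution series, duplicate; 90 min, 37 °C/5% CO2; detection reagent 3 h RT, dark; luminescence.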

[3] = Table 3, read-out: EC50 GLP-1R/nM
[4] = Table 3A, read-out: EC50 GLP-1R/nM
[5] = Table 3, read-out: EC50 GIP-R/nM
[6] = Table 3A, read-out: EC50 GIP-R/nM
[7] = PathHunter β-arrestin assay, read-out: β-arrestin activity EC50

T1 sequence (P43220 24-463): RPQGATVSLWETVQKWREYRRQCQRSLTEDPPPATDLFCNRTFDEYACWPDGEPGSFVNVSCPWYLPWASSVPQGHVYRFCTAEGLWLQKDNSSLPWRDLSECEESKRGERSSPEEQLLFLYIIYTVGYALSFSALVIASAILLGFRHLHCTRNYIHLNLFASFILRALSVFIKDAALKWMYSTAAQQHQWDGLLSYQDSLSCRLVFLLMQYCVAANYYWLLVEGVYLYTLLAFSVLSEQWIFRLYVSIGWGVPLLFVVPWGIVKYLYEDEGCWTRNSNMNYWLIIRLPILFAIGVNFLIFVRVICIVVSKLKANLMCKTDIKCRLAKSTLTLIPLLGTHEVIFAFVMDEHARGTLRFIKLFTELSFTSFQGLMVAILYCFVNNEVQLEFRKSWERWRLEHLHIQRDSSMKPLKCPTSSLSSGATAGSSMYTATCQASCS

Structure (SMILES) | Emax (GLP-1R [1]; Table 3) [%] | EC50 (GLP-1R [1]; [3]) [nM] | Emax (GLP-1R [1]; Table 3A) [%] | EC50 (GLP-1R [1]; [4]) [nM] | Emax (GIP-R; Table 3) [%] | EC50 (GIP-R; [5]) [nM] | Emax (GIP-R; Table 3A) [%] | EC50 (GIP-R; [6]) [nM] | AUC score (mice; dose range 2-5 nmol/kg) | EC50 (GLP-1R [2]; [7]) [nM] | EC50 (GLP-1R [1]; EC50 GLP-1R/nM, Table 3) [nM] | EC50 (GLP-1R [1]; EC50 GLP-1R/nM, Table 3A) [nM] | EC50 (GIP-R; EC50 GIP-R/nM, Table 3) [nM] | EC50 (GIP-R; EC50 GIP-R/nM, Table 3A) [nM] | AUC score (mice; dose range 5.1-15 nmol/kg) | EC50 (GLP-1R [2]) [nM]
CCCCCCCCCCCCCCCC(=O)N[C@@H](CCC(=O)NCCCC[C@H](NC(=O)[C@H](CO)NC(=O)[C@@H]1CCCN1C(=O)[C@@H]1CCCN1C(=O)[C@@H]1CCCN1C(=O)[C@H](C)NC(=O)CNC(=O)[C@H](CO)NC(=O)[C@H](CO)NC(=O)[C@@H]1CCCN1C(=O)CNC(=O)CNC(=O)[C@H](C)NC(=O)[C@H](CC(C)C)NC(=O)[C@H](CC(C)C)NC(=O)[C@H](Cc1c[nH]c2ccccc12)NC(=O)[C@H](CC(N)=O)NC(=O)[C@@H](NC(=O)[C@H](Cc1ccccc1)NC(=O)[C@H](CCC(=O)O)NC(=O)C(C)(C)NC(=O)[C@H](C)NC(=O)[C@H](C)NC(=O)[C@H](CCC(N)=O)NC(=O)[C@H](CCCCN)NC(=O)[C@H](CC(=O)O)NC(=O)[C@H](CC(C)C)NC(=O)[C@H](Cc1ccc(O)cc1)NC(=O)[C@@H](NC(=O)[C@H](CO)NC(=O)[C@H](Cc1ccc(O)cc1)NC(=O)[C@H](CC(=O)O)NC(=O)[C@H](CO)NC(=O)[C@@H](NC(=O)[C@H](Cc1ccccc1)NC(=O)[C@@H](NC(=O)CNC(=O)[C@H](CCC(=O)O)NC(=O)CSCC(=O)NCCN1CCCCC1=O)[C@@H](C)O)[C@@H](C)O)[C@@H](C)CC)C(C)C)C(N)=O)C(=O)O [Compound 65] | 96 | 0.1 to 1 | 96 | 0.1 to 1 | 42 | 1 to 10 | 42 | 1 to 10 | 2 (AUC score 2 = 26-50%) | > 1000 |  |  |  |  |  | 
CCCCCCCCCCCCCCCC(=O)N[C@@H](CCC(=O)NCCCC[C@H](NC(=O)[C@H](CO)NC(=O)[C@@H]1CCCN1C(=O)[C@@H]1CCCN1C(=O)[C@@H]1CCCN1C(=O)[C@H](C)NC(=O)CNC(=O)[C@H](CO)NC(=O)[C@H](CO)NC(=O)[C@@H]1CCCN1C(=O)CNC(=O)CNC(=O)[C@H](C)NC(=O)[C@H](CC(C)C)NC(=O)[C@H](CC(C)C)NC(=O)[C@H](Cc1c[nH]c2ccccc12)NC(=O)[C@H](CC(N)=O)NC(=O)[C@@H](NC(=O)[C@H](Cc1ccccc1)NC(=O)[C@H](CCC(=O)O)NC(=O)C(C)(C)NC(=O)[C@H](C)NC(=O)[C@H](C)NC(=O)[C@H](CCC(N)=O)NC(=O)[C@H](CCCCN)NC(=O)[C@H](CC(=O)O)NC(=O)[C@H](CC(C)C)NC(=O)[C@H](Cc1ccc(O)cc1)NC(=O)[C@@H](NC(=O)[C@H](CO)NC(=O)[C@H](Cc1ccc(O)cc1)NC(=O)[C@H](CC(=O)O)NC(=O)[C@H](CO)NC(=O)[C@@H](NC(=O)[C@H](Cc1ccccc1)NC(=O)[C@@H](NC(=O)CNC(=O)[C@H](CCC(=O)O)NC(=O)CSCC(=O)NCCN1CC[C@H](O)C1=O)[C@@H](C)O)[C@@H](C)O)[C@@H](C)CC)C(C)C)C(N)=O)C(=O)O [Compound 66] | 113 | < 0.1 | 113 | < 0.1 | 11 | 1 to 10 | 11 | 100 to 1000 | 2 (AUC score 2 = 26-50%) | > 1000 |  |  |  |  |  | 
CCCCCCCCCCCCCCCC(=O)N[C@@H](CCC(=O)NCCCC[C@H](NC(=O)[C@H](CO)NC(=O)[C@@H]1CCCN1C(=O)[C@@H]1CCCN1C(=O)[C@@H]1CCCN1C(=O)[C@H](C)NC(=O)CNC(=O)[C@H](CO)NC(=O)[C@H](CO)NC(=O)[C@@H]1CCCN1C(=O)CNC(=O)CNC(=O)[C@H](C)NC(=O)[C@H](CC(C)C)NC(=O)[C@H](CC(C)C)NC(=O)[C@H](Cc1c[nH]c2ccccc12)NC(=O)[C@H](CC(N)=O)NC(=O)[C@@H](NC(=O)[C@H](Cc1ccccc1)NC(=O)[C@H](CCC(=O)O)NC(=O)C(C)(C)NC(=O)[C@H](C)NC(=O)[C@H](C)NC(=O)[C@H](CCC(N)=O)NC(=O)[C@H](CCCCN)NC(=O)[C@H](CC(=O)O)NC(=O)[C@H](CC(C)C)NC(=O)[C@H](Cc1ccc(O)cc1)NC(=O)[C@@H](NC(=O)[C@H](CO)NC(=O)[C@H](Cc1ccc(O)cc1)NC(=O)[C@H](CC(=O)O)NC(=O)[C@H](CO)NC(=O)[C@@H](NC(=O)[C@H](Cc1ccccc1)NC(=O)[C@@H](NC(=O)CNC(=O)[C@H](CCC(=O)O)NC(=O)CSCC(=O)NCCN1C(=O)C(C)=C(C)C1=O)[C@@H](C)O)[C@@H](C)O)[C@@H](C)CC)C(C)C)C(N)=O)C(=O)O [Compound 77] | 90 |  | 90 |  | 82 |  | 82 |  |  |  | 0.1 to 1 | 0.1 to 1 | 0.1 to 1 | 0.1 to 1 | 2 (AUC score 2 = 26-50%) | > 1000
CCCCCCCCCCCCCCCC(=O)N[C@@H](CCC(=O)NCCCC[C@H](NC(=O)[C@H](CO)NC(=O)[C@@H]1CCCN1C(=O)[C@@H]1CCCN1C(=O)[C@@H]1CCCN1C(=O)[C@H](C)NC(=O)CNC(=O)[C@H](CO)NC(=O)[C@H](CO)NC(=O)[C@@H]1CCCN1C(=O)CNC(=O)CNC(=O)[C@H](C)NC(=O)[C@H](CC(C)C)NC(=O)[C@H](CC(C)C)NC(=O)[C@H](Cc1c[nH]c2ccccc12)NC(=O)[C@H](CC(N)=O)NC(=O)[C@@H](NC(=O)[C@H](Cc1ccccc1)NC(=O)[C@H](CCC(=O)O)NC(=O)C(C)(C)NC(=O)[C@H](C)NC(=O)[C@H](C)NC(=O)[C@H](CCC(N)=O)NC(=O)[C@H](CCCCN)NC(=O)[C@H](CC(=O)O)NC(=O)[C@H](CC(C)C)NC(=O)[C@H](Cc1ccc(O)cc1)NC(=O)[C@@H](NC(=O)[C@H](CO)NC(=O)[C@H](Cc1ccc(O)cc1)NC(=O)[C@H](CC(=O)O)NC(=O)[C@H](CO)NC(=O)[C@@H](NC(=O)[C@H](Cc1ccccc1)NC(=O)[C@@H](NC(=O)CNC(=O)[C@H](CCC(=O)O)NC(=O)CSCC(=O)NCCN1C(=O)C[C@@H](O)C1=O)[C@@H](C)O)[C@@H](C)O)[C@@H](C)CC)C(C)C)C(N)=O)C(=O)O [Compound 79] | 102 |  | 102 |  | 77 |  | 77 |  |  |  | 0.1 to 1 | 0.1 to 1 | 0.1 to 1 | 0.1 to 1 | 2 (AUC score 2 = 26-50%) | > 1000
CCCCCCCCCCCCCCCC(=O)N[C@@H](CCC(=O)NCCCC[C@H](NC(=O)[C@H](CO)NC(=O)[C@@H]1CCCN1C(=O)[C@@H]1CCCN1C(=O)[C@@H]1CCCN1C(=O)[C@H](C)NC(=O)CNC(=O)[C@H](CO)NC(=O)[C@H](CO)NC(=O)[C@@H]1CCCN1C(=O)CNC(=O)CNC(=O)[C@H](C)NC(=O)[C@H](CC(C)C)NC(=O)[C@H](CC(C)C)NC(=O)[C@H](Cc1c[nH]c2ccccc12)NC(=O)[C@H](CC(N)=O)NC(=O)[C@@H](NC(=O)[C@H](Cc1ccccc1)NC(=O)[C@H](CCC(=O)O)NC(=O)C(C)(C)NC(=O)[C@H](C)NC(=O)[C@H](C)NC(=O)[C@H](CCC(N)=O)NC(=O)[C@H](CCCCN)NC(=O)[C@H](CC(=O)O)NC(=O)[C@H](CC(C)C)NC(=O)[C@H](Cc1ccc(O)cc1)NC(=O)[C@@H](NC(=O)[C@H](CO)NC(=O)[C@H](Cc1ccc(O)cc1)NC(=O)[C@H](CC(=O)O)NC(=O)[C@H](CO)NC(=O)[C@@H](NC(=O)[C@H](Cc1ccccc1)NC(=O)[C@@H](NC(=O)CNC(=O)[C@H](CCC(=O)O)NC(=O)CSCC(=O)NCCN1C(=O)CCC(C)(C)C1=O)[C@@H](C)O)[C@@H](C)O)[C@@H](C)CC)C(C)C)C(N)=O)C(=O)O [Compound 81] | 96 |  | 96 |  | 89 |  | 89 |  | 3 (AUC score 3 = 51-75%) |  | 0.1 to 1 | 0.1 to 1 | 0.1 to 1 | 0.1 to 1 |  | > 1000
